Legend:
[1] = Half life in ICR mouse at 1 mg/kg, iv measured upto 24 hrs by LC-MS/MS analysis; type: ADME, organism-based; conditions: in vivo
[2] = AUC (0 to 24 hrs) in ICR mouse at 60 mg/kg, IG measured upto 24 hrs by LC-MS/MS analysis; type: ADME, organism-based; conditions: in vivo, po
[3] = Half life in ICR mouse at 60 mg/kg, IG measured upto 24 hrs by LC-MS/MS analysis; type: ADME, organism-based; conditions: in vivo, po
[4] = Bioavailability in ICR mouse at 60 mg/kg, IG measured upto 24 hrs by LC-MS/MS analysis; type: ADME, organism-based; conditions: in vivo, po
[5] = biological target: T1, Cyclin-G-associated kinase (Homo sapiens) (UniProt O14976); experiment: Inhibition of GAK (unknown origin) at 1 uM relative to control
T1 sequence (whole entry): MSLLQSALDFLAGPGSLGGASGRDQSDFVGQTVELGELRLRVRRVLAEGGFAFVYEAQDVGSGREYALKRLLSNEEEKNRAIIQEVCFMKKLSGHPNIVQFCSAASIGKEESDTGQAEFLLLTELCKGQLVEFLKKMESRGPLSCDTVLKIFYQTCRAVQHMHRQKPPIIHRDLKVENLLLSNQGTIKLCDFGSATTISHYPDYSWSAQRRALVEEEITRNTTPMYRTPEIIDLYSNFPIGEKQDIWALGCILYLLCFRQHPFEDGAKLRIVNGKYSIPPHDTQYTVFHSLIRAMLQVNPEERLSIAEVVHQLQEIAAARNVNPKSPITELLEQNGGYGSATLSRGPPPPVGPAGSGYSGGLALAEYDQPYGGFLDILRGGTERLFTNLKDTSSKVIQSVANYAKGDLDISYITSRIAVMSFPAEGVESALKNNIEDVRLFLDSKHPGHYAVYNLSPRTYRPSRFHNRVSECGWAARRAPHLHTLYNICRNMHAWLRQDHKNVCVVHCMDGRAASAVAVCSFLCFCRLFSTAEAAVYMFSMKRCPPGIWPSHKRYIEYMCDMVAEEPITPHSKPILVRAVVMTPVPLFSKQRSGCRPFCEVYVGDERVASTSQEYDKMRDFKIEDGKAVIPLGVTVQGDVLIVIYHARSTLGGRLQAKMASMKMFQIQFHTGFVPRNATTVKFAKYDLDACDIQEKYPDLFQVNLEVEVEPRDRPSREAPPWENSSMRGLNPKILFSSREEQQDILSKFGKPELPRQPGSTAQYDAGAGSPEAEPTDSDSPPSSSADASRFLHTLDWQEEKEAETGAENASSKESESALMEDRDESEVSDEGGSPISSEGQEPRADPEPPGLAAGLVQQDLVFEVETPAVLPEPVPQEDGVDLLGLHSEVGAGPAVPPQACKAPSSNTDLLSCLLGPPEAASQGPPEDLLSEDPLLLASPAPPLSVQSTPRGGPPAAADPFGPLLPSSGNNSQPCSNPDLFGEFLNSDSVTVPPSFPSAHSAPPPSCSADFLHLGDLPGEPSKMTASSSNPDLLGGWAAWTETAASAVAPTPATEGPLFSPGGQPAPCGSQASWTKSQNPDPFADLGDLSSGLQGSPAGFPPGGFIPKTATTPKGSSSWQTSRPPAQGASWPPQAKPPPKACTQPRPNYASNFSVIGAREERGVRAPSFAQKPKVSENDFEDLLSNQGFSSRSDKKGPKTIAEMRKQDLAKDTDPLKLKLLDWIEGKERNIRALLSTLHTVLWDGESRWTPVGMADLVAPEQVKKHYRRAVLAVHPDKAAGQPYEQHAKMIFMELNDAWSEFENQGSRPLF

A-427 [6] = experiment: Induction of apoptosis in human A-427 cells assessed as viable cells at 200 nM measured for 48 hrs by Annexin V/PI double staining based flow cytometry analysis (reference value: 97.7%); type: functional; conditions: read-out: Activity
A-427 [7] = experiment: Induction of apoptosis in human A-427 cells assessed as early apoptotic cells at 200 nM measured for 48 hrs by Annexin V/PI double staining based flow cytometry analysis (reference value: 1.96%); type: functional
A-427 [8] = experiment: Induction of apoptosis in human A-427 cells assessed as late apoptotic cells at 200 nM measured for 48 hrs by Annexin V/PI double staining based flow cytometry analysis (reference value: 0.21%); type: functional
A-427 [9] = experiment: Induction of apoptosis in human A-427 cells assessed as viable cells at 400 nM measured for 48 hrs by Annexin V/PI double staining based flow cytometry analysis (reference value: 97.7%); type: functional; conditions: read-out: Activity
A-427 [10] = experiment: Induction of apoptosis in human A-427 cells assessed as late apoptotic cells at 400 nM measured for 48 hrs by Annexin V/PI double staining based flow cytometry analysis (reference value: 0.21%); type: functional
A-427 [11] = experiment: Induction of apoptosis in human A-427 cells assessed as necrotic cells at 400 nM measured for 48 hrs by Annexin V/PI double staining based flow cytometry analysis (reference value: 0.098%); type: functional
A-427 [12] = experiment: Induction of apoptosis in human A-427 cells assessed as viable cells at 800 nM measured for 48 hrs by Annexin V/PI double staining based flow cytometry analysis (reference value: 97.7%); type: functional; conditions: read-out: Activity
A-427 [13] = experiment: Induction of apoptosis in human A-427 cells assessed as necrotic cells at 800 nM measured for 48 hrs by Annexin V/PI double staining based flow cytometry analysis (reference value: 0.098%); type: functional
A-427 [14] = experiment: Induction of cell cycle arrest in human A-427 cells assessed as accumulation of cells at G0/G1 phase at 50 nM measured for 48 hrs by flow cytometry analysis (reference value: 49.5%); type: functional
A-427 [15] = experiment: Induction of cell cycle arrest in human A-427 cells assessed as accumulation of cells at S phase at 50 nM measured for 48 hrs by flow cytometry analysis (reference value: 4 %); type: functional
A-427 [16] = experiment: Induction of cell cycle arrest in human A-427 cells assessed as accumulation of cells at G0/G1 phase at 100 nM measured for 48 hrs by flow cytometry analysis (reference value: 49.5%); type: functional
A-427 [17] = experiment: Induction of cell cycle arrest in human A-427 cells assessed as accumulation of cells at S phase at 100 nM measured for 48 hrs by flow cytometry analysis (reference value: 4 %); type: functional
A-427 [18] = experiment: Induction of cell cycle arrest in human A-427 cells assessed as accumulation of cells at G0/G1 phase at 200 nM measured for 48 hrs by flow cytometry analysis (reference value: 49.5%); type: functional
A-427 [19] = experiment: Induction of cell cycle arrest in human A-427 cells assessed as accumulation of cells at S phase at 200 nM measured for 48 hrs by flow cytometry analysis (reference value: 4 %); type: functional
A-427 [20] = experiment: Induction of cell cycle arrest in human A-427 cells assessed as accumulation of cells at G0/G1 phase at 400 nM measured for 48 hrs by flow cytometry analysis (reference value: 49.5%); type: functional
A-427 [21] = experiment: Induction of cell cycle arrest in human A-427 cells assessed as accumulation of cells at S phase at 400 nM measured for 48 hrs by flow cytometry analysis (reference value: 4 %); type: functional
A-427 [22] = experiment: Induction of cell cycle arrest in human A-427 cells assessed as accumulation of cells at G2/M phase at 400 nM measured for 48 hrs by flow cytometry analysis (reference value: 10.9 %); type: functional

For `C=CCn1c(=O)c2cnc(Nc3ccc(N4CCN(C)CC4)cc3)nc2n1-c1cccc(-c2cnccn2)n1`, which half-life [1] is on record?
Its half-life is 1.06 h.

What about the AUC(0-t) at 24 h [2] of the same compound?
The AUC(0-t) at 24 h was 4340 ng·h/mL.

What about the half-life [3] of the same compound?
The half-life was 5.94 h.

And the bioavailability [4]?
Its bioavailability is 61.5%.

And the inhibition [5]?
The inhibition was greater than 90%.

What about the viability at 0.2 µM (A-427 [6]) of the same compound?
Its viability at 0.2 µM is 60.6%.

What about the Activity (A-427 [7]) of the same compound?
The Activity was 9.02%.

What about the Activity (A-427 [8]) of the same compound?
Its Activity is 25.6%.

And the viability at 0.4 µM (A-427 [9])?
Its viability at 0.4 µM is 58.3%.

What about the Activity (A-427 [10]) of the same compound?
The Activity was 29.2%.

What about the Activity (A-427 [11]) of the same compound?
Its Activity is 2.33%.

What about the viability at 0.8 µM (A-427 [12]) of the same compound?
The viability at 0.8 µM was 50.9%.

What about the Activity (A-427 [13]) of the same compound?
Its Activity is 3.64%.

What about the Activity (A-427 [14]) of the same compound?
Its Activity is 40.9%.

What about the Activity (A-427 [15]) of the same compound?
The Activity was 46.7%.

What about the Activity (A-427 [16]) of the same compound?
Its Activity is 41.4%.

And the Activity (A-427 [17])?
The Activity was 48.5%.

What about the Activity (A-427 [18]) of the same compound?
The Activity was 31.6%.

And the Activity (A-427 [19])?
Its Activity is 59.1%.

What about the Activity (A-427 [20]) of the same compound?
The Activity was 31.3%.

And the Activity (A-427 [21])?
Its Activity is 59.1%.

What about the Activity (A-427 [22]) of the same compound?
The Activity was 9.32%.

From ChEMBL document CHEMBL5512688 (J Med Chem, 2024)
